The conditions of experiment [1]: cited from earlier work.
In experiment [2] the target is hDAT (Homo sapiens, UniProt Q01959). Put plainly: Radioligand binding, DAT ([3H]WIN35,428). The note with it: hDAT Ki ± SD, [3H]WIN35,428.
Experiment [3] addresses rTAAR1 (Rattus norvegicus, UniProt Q923Y9). Put plainly: Radioligand binding, rat TAAR1 ([3H]RO5166017).
In experiment [4] the target is mTAAR1 (Mus musculus, UniProt Q923Y8). Description: Radioligand binding, mouse TAAR1 ([3H]RO5166017).
In experiment [5] the target is hNET (Homo sapiens, UniProt P23975). Put plainly: Radioligand binding, NET (N-methyl-[3H]nisoxetine).
In experiment [6] the target is T1, h5-HT1A receptor (Homo sapiens, UniProt P08908).
T1 sequence (P08908 1-422): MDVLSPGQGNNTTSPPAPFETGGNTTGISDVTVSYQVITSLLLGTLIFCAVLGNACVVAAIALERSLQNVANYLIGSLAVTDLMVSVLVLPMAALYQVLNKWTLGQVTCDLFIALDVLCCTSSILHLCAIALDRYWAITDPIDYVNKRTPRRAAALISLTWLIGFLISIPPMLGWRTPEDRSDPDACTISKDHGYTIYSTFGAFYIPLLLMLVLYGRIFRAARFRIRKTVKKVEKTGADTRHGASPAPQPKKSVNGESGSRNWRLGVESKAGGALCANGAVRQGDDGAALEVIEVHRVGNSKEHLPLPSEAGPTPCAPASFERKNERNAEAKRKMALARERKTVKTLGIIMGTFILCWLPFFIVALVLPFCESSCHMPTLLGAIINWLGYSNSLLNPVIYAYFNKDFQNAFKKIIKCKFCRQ
Description: Radioligand binding, 5-HT1A receptor ([3H]8-OH-DPAT).

Experiment [7] concerns the target T2, h5-HT2C receptor (Homo sapiens, UniProt P28335).
T2 sequence (P28335 33-458): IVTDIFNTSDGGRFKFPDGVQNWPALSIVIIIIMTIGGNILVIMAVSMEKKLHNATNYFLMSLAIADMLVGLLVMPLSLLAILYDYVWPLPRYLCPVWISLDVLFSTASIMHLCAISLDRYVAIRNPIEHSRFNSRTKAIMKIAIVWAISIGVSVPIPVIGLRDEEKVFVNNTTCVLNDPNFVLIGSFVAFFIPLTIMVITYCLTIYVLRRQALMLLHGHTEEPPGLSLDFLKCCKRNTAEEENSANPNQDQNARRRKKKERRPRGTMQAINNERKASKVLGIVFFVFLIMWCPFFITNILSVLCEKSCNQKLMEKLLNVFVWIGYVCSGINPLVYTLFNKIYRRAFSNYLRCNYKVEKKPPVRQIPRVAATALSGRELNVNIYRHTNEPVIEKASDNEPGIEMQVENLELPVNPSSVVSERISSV
Description: Radioligand binding, 5-HT2C receptor ([3H]mesulergine).

For experiment [8], the target named is T3, hα1A adrenergic receptor (Homo sapiens, UniProt P35348).
T3 sequence (P35348 1-466): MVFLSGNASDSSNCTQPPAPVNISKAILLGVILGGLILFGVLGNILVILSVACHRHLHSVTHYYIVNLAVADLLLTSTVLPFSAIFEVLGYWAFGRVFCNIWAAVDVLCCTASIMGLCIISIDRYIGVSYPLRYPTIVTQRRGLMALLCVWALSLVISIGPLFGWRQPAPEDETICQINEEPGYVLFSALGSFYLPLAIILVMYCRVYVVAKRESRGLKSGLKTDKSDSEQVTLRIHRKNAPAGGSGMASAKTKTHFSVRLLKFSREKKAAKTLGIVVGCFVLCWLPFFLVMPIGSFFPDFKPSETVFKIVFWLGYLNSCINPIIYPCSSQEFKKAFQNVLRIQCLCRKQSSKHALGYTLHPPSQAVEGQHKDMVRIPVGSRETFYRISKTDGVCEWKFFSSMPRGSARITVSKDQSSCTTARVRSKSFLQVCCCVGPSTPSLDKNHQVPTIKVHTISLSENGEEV
Put plainly: Radioligand binding, α1A adrenergic receptor ([3H]prazosin). To be noted: hα1A Ki ± SD.

Experiment [9] deals with hD2 receptor (Homo sapiens, UniProt P14416). Put plainly: Radioligand binding, dopaminergic D2 receptor ([3H]spiperone).
For experiment [10], the target named is T4, hα2A adrenergic receptor (Homo sapiens, UniProt P08913).
T4 sequence (P08913 1-465): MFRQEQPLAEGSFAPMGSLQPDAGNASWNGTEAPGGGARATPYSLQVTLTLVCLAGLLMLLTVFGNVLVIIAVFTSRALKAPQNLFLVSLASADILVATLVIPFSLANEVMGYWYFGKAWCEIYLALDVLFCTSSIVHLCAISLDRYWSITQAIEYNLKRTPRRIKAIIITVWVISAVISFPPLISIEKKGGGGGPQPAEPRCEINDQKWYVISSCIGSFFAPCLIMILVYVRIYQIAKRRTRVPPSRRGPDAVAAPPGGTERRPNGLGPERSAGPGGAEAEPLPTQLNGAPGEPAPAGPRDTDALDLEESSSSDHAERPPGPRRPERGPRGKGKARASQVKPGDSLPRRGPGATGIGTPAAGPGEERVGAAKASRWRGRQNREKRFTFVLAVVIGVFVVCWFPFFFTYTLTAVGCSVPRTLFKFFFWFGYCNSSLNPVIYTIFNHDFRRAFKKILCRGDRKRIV
Put plainly: Radioligand binding, α2A adrenergic receptor ([3H]rauwolscine).

[11] abbreviates: anecdotal, ref Shulgin and Shulgin, 1991.

Sequence of rTAAR1 (Q923Y9 whole entry): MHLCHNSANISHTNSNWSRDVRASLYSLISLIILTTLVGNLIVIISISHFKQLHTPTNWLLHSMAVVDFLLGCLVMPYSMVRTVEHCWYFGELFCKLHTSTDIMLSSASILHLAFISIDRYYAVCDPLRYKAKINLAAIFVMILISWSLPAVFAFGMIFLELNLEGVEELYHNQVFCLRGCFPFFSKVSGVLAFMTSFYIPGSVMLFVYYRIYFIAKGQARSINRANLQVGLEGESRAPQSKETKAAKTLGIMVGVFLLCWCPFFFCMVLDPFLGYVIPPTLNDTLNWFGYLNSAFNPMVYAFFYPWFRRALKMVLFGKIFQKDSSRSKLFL
Sequence of hNET (P23975 whole entry): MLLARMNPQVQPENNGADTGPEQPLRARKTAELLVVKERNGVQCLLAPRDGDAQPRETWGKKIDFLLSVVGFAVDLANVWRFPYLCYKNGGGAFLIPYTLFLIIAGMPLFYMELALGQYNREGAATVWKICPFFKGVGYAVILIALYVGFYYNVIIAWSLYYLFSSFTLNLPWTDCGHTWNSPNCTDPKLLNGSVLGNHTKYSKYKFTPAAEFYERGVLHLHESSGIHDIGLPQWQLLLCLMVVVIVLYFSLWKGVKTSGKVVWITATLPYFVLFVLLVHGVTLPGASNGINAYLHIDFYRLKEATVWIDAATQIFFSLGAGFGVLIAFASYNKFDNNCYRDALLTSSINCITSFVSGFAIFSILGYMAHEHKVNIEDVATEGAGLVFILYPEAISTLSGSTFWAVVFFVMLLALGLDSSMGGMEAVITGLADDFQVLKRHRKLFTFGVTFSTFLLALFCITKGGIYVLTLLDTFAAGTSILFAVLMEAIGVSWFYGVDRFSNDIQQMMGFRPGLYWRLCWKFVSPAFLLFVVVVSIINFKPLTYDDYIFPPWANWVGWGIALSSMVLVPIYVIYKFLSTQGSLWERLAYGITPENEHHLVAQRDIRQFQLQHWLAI
Sequence of mTAAR1 (Q923Y8 whole entry): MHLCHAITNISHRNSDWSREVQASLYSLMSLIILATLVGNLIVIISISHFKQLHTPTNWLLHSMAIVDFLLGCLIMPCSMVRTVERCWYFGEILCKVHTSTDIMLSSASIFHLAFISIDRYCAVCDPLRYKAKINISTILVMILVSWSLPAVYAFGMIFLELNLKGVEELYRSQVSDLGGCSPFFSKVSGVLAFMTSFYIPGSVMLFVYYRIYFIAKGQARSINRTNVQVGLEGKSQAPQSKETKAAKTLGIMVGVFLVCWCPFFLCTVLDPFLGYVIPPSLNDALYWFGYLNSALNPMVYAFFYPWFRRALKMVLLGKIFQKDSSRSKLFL
Sequence of hD2 receptor (P14416 whole entry): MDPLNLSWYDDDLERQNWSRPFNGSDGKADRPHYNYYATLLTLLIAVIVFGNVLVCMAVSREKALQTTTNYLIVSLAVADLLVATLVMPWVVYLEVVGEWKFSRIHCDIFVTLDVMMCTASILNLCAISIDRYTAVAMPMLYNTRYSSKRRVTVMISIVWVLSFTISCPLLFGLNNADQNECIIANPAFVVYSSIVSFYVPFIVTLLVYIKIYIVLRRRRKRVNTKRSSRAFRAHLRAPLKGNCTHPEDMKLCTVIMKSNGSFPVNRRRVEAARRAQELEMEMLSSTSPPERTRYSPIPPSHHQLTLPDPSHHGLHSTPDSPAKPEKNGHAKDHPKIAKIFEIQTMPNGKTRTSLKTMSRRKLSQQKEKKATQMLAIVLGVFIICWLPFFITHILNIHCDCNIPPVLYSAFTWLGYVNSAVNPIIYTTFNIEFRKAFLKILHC
Sequence of hDAT (Q01959 whole entry): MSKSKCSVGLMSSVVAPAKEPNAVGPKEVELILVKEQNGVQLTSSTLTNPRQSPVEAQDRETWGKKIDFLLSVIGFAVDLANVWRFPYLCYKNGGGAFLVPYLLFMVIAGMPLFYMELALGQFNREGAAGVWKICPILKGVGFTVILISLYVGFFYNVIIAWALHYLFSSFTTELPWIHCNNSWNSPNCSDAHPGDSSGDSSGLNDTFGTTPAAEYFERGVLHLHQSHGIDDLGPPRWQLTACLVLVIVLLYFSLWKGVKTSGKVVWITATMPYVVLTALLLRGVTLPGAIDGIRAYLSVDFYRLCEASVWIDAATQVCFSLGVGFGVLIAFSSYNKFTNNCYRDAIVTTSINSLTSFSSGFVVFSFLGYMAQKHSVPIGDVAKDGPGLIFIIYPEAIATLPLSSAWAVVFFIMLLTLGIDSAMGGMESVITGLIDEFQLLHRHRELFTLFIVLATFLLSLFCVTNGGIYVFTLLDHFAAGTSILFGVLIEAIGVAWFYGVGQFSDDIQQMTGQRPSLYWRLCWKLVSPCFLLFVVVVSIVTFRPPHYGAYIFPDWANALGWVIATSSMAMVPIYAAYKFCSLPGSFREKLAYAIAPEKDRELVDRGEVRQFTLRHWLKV

The term Ki denotes a measure of affinity in units of concentration, obtained from inhibition or displacement. As to `COc1cc(OC(F)F)cc(OC)c1CCN` [Ψ-2C-O-35, 4-(2,2-difluoromethoxy)-2,6-dimethoxyphenethylamine], the “dose with some psychoactivity in humans” value in experiment [1] (initial doses, anecdotal, ref Trachsel et al., 2013) is 17 mg. Further, the inhibition constant Ki in experiment [2] is more than 8500 nM; in experiment [3], 51 ± 4 nM; in experiment [4], 680 ± 120 nM; in [5], more than 8800 nM; in [6], 4440 nM; in experiment [7], 510 ± 140 nM. For the same compound, the Ki was 2100 nM in [8], more than 6000 nM in experiment [9] and 450 ± 70 nM in experiment [10].
`COc1cc(OC)c(CCN)c(OC)c1` [Ψ-2C-O-1, 2,4,6-trimethoxyphenethylamine]: the activity in humans entry in experiment [1] (doses up to 300 mg) is “inactive”. Further, the Ki in experiment [2] is more than 8500 nM; in experiment [3], 57 ± 12 nM; in experiment [4], 590 ± 20 nM; in [5] it was more than 8800 nM; in [6] it was 960 ± 90 nM; in experiment [7], 1200 nM. Also, the Ki was more than 8800 nM in experiment [8], more than 6000 nM in [9] and 780 ± 70 nM in [10].
On to `COc1cc(OC)c(CC(C)N)c(OC)c1` (stereo not shown) [TMA-6, 2,4,6-trimethoxyamphetamine], for which the “duration of effects in humans” value in experiment [1] (setting [11]) is 12 to 16 h. Also, the “psychoactive dose in humans” value in [1] (setting [11]) was 25 to 50 mg. In addition, the Ki in experiment [2] is more than 8500 nM; in experiment [3], 180 ± 20 nM; in [4], 850 ± 20 nM; in experiment [5] it was more than 8800 nM; in experiment [6], more than 5600 nM; in [7] it was 1800 nM. The Ki is more than 8800 nM in experiment [8], more than 6000 nM in experiment [9] and 3100 nM in experiment [10].
For the compound `COc1cc(OCC(F)F)cc(OC)c1CC(C)N` (stereo not shown) [Ψ-MDFEM, 4-(2,2-difluoroethoxy)-2,6-dimethoxyamphetamine], the Ki in experiment [2] is 5400 nM; in experiment [3], 66 ± 13 nM; in experiment [4], 500 ± 70 nM; in [5], more than 8800 nM; in experiment [6], more than 5600 nM; in experiment [7], 9500 nM. Besides, the figures for the Ki in experiment [8], in experiment [9] and in experiment [10] were 3900 nM, more than 6000 nM and 3300 nM, respectively.

Values taken from article PMC12675387, “Receptor interaction profiles of 4-alkoxy-2,6-dimethoxyphenethylamines (Ψ derivatives) and related amphetamines” (Frontiers in Pharmacology, 2025).
